{
  "source": "patent US20100239563A1",
  "about": "(priority 2001, published 2010)",
  "key": {"[1]": {"system": "influenza A virus strain fowl plague virus A/Fpv/Bratislava/79", "format": "cell-based"}, "[2]": {"system": "influenza A virus strain fowl plague virus A/Fpv/Bratislava/79 (H7N7)", "format": "cell-based"}},
  "data": [
    {"smiles": "Oc1ccc(-c2nc(-c3ccc(F)cc3)c(-c3ccncc3)[nH]2)cc1", "note": "[SB202190, 4-(4-fluorophenyl)-2-(4-hydroxyphenyl)-5-(4-pyridyl) 1H-imidazole]", "values": [
      {"measurement": "virus multiplication vs cells not treated with SB202190", "setting": "[1]", "result": "significantly inhibited"}
    ]},
    {"smiles": "N#CC(=C(N)Sc1ccccc1N)C(C#N)=C(N)Sc1ccccc1N", "note": "[U0126, 1,4-diamino-2,3-dicyano-1,4-bis(2-aminophenylthio)butadiene]", "values": [
      {"measurement": "virus multiplication vs cells not treated with U0126", "setting": "[2]", "result": "significantly inhibited"}
    ]}
  ]
}
